Data taken from patent publication US9695155B2, “Herbicidal substituted pyrimidinyloxy benzene compounds” (E. I. DU PONT DE NEMOURS AND COMPANY, priority 2013, dated 2017).

Tests used:
[1] = system: barnyardgrass; experiment: Test A preemergence; assay type: in vivo, Echinochloa crus-galli; conditions: for Plant response rating, Barnyardgrass: 125 g ai/ha, 0 to 100 scale where 0 is no effect and 100 is complete control; for Barnyardgrass plant response rating: 500 g ai/ha, 0 to 100 scale, 0 no effect, 100 complete control, approx. 10 days
In short: (§1)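 Visual 0–100 rating (100 = complete control) taken about 10 d post-treatment relative to untreated checks. Preemergence: directed soil spray on sown loam/sand pots. Postemergence: seedlings 2–10 cm, 1–2 leaf. Non-phytotoxic solvent formulation with surfactant.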

[2] = system: giant foxtail; experiment: Test A preemergence; assay type: in vivo, Setaria faberii; conditions: for Plant response rating, Foxtail, Giant: 125 g ai/ha, 0 to 100 scale where 0 is no effect and 100 is complete control; for Foxtail, Giant plant response rating: 500 g ai/ha, 0 to 100 scale, 0 no effect, 100 complete control, approx. 10 days
In short: as §1

[3] = system: pigweed; experiment: Test A preemergence; assay type: in vivo, Amaranthus retroflexus; conditions: for Plant response rating, Pigweed: 125 g ai/ha, 0 to 100 scale where 0 is no effect and 100 is complete control; for Pigweed plant response rating: 500 g ai/ha, 0 to 100 scale, 0 no effect, 100 complete control, approx. 10 days
In short: as §1

[4] = system: pigweed; experiment: Test A postemergence; assay type: in vivo, Amaranthus retroflexus; conditions: 0 to 100 scale where 0 is no effect and 100 is complete control
In short: as §1

[5] = system: sedge, umbrella; experiment: Test B flooded paddy test; assay type: in vivo, Cyperus difformis; conditions: Flood, 250 g ai/ha; 0 to 100 scale where 0 is no effect and 100 is complete control
In short: (§2)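 Visual ratings on a 0 to 100 scale, where 100 means complete control, compared treated plants with controls after 13 to 15 days in a greenhouse. Treatment went into paddy water 3 cm deep over the soil, applied to plants at the 2-leaf stage.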

[6] = system: barnyardgrass; experiment: Test B flooded paddy test; assay type: in vivo, Echinochloa crus-galli; conditions: Flood, 250 g ai/ha; 0 to 100 scale where 0 is no effect and 100 is complete control
In short: as §2

[7] = system: blackgrass; experiment: Test C postemergence; assay type: in vivo, Alopecurus myosuroides; conditions: for Blackgrass plant response rating: 16 g ai/ha, visual rating; for Blackgrass plant response rating / Plant response rating (0 to 100), Blackgrass: postemergence; for Blackgrass plant response rating / Plant response rating, Blackgrass: scale 0 to 100 (0 no effect, 100 complete control); for Plant response rating (0 to 100), Blackgrass: 125 g ai/ha; for Plant response rating, Blackgrass: Postemergence
In short: (§3)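 Greenhouse herbicide screen. Pre: seeded loam/sand, sprayed at planting. Post: 1–4 leaf plants (2–18 cm) in peat-based mix. Formulation: solvent mixture + surfactant, non-phytotoxic. Readout: visual % control vs untreated, 13–15 d; dash = not tested.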

[8] = system: Italian ryegrass; experiment: Test C postemergence; assay type: in vivo, Lolium multiflorum; conditions: for Plant response rating (0 to 100), Ryegrass, Italian: 125 g ai/ha, postemergence; for Plant response rating, Ryegrass, Italian: Postemergence, scale 0 to 100 (0 no effect, 100 complete control)
In short: as §3

[9] = system: corn; experiment: Test C postemergence; assay type: in vivo, Zea mays; conditions: for Corn plant response rating: 16 g ai/ha, visual rating; for Corn plant response rating / Plant response rating (0 to 100), Corn: postemergence; for Corn plant response rating / Plant response rating, Corn: scale 0 to 100 (0 no effect, 100 complete control); for Plant response rating (0 to 100), Corn: 125 g ai/ha; for Plant response rating, Corn: Postemergence
In short: as §3

[10] = system: large (Lg) crabgrass; experiment: Test C postemergence; assay type: in vivo, Digitaria sanguinalis; conditions: for Crabgrass, Large plant response rating: 16 g ai/ha, visual rating; for Crabgrass, Large plant response rating / Plant response rating (0 to 100), Crabgrass, Large: postemergence; for Crabgrass, Large plant response rating / Plant response rating, Crabgrass, Large: scale 0 to 100 (0 no effect, 100 complete control); for Plant response rating (0 to 100), Crabgrass, Large: 125 g ai/ha; for Plant response rating, Crabgrass, Large: Postemergence
In short: as §3

[11] = system: giant foxtail; experiment: Test C postemergence; assay type: in vivo, Setaria faberii; conditions: for Foxtail, Giant plant response rating: 16 g ai/ha, visual rating; for Foxtail, Giant plant response rating / Plant response rating (0 to 100), Foxtail, Giant: postemergence; for Foxtail, Giant plant response rating / Plant response rating, Foxtail, Giant: scale 0 to 100 (0 no effect, 100 complete control); for Plant response rating (0 to 100), Foxtail, Giant: 125 g ai/ha; for Plant response rating, Foxtail, Giant: Postemergence
In short: as §3

[12] = system: johnsongrass; experiment: Test C postemergence; assay type: in vivo, Sorghum halepense; conditions: for Johnsongrass plant response rating: 16 g ai/ha, visual rating; for Johnsongrass plant response rating / Plant response rating (0 to 100), Johnsongrass: postemergence; for Johnsongrass plant response rating / Plant response rating, Johnsongrass: scale 0 to 100 (0 no effect, 100 complete control); for Plant response rating (0 to 100), Johnsongrass: 125 g ai/ha; for Plant response rating, Johnsongrass: Postemergence
In short: as §3

[13] = system: chickweed; experiment: Test C postemergence; assay type: in vivo, Stellaria media; conditions: for Chickweed plant response rating: 16 g ai/ha, visual rating; for Chickweed plant response rating / Plant response rating (0 to 100), Chickweed: postemergence; for Chickweed plant response rating / Plant response rating, Chickweed: scale 0 to 100 (0 no effect, 100 complete control); for Plant response rating (0 to 100), Chickweed: 125 g ai/ha; for Plant response rating, Chickweed: Postemergence
In short: as §3

Structure (SMILES) | Plant response rating, Barnyardgrass [1] | Barnyardgrass plant response rating [1] | Plant response rating, Foxtail, Giant [2] | Foxtail, Giant plant response rating [2] | Plant response rating, Pigweed [3] | Pigweed plant response rating [3] | Plant response rating, Pigweed ([4]; 125 g ai/ha) | Plant response rating, Pigweed ([4]; 500 g ai/ha) | Plant response rating, Sedge, Umbrella [5] | Plant response rating, Barnyardgrass [6] | Blackgrass plant response rating ([7]; 13 to 15 days) | Plant response rating (0 to 100), Blackgrass [7] | Plant response rating, Blackgrass ([7]; 31 g ai/ha, 13 to 15 days) | Plant response rating, Blackgrass ([7]; 62 g ai/ha) | Plant response rating (0 to 100), Ryegrass, Italian [8] | Plant response rating, Ryegrass, Italian ([8]; 31 g ai/ha, 13 to 15 days) | Plant response rating, Ryegrass, Italian ([8]; 62 g ai/ha) | Corn plant response rating ([9]; 13 to 15 days) | Plant response rating (0 to 100), Corn [9] | Plant response rating, Corn ([9]; 31 g ai/ha, 13 to 15 days) | other results
Cc1cnc(Oc2cccc(C#N)c2-n2cc(C#N)cn2)nc1 [Compound 90] | 70 | 100 | 90 | 100 | 100 | 100 | 100 | 100 | 40 | 0 | 0 | 15 | 0 | 5 | 0 | 5 | 5 | 0 | 5 | 5 | Plant response rating, Corn ([9]; 62 g ai/ha): 5; Crabgrass, Large plant response rating ([10]; 13 to 15 days): 5; Plant response rating (0 to 100), Crabgrass, Large [10]: 10; Plant response rating, Crabgrass, Large ([10]; 31 g ai/ha, 13 to 15 days): 5; Plant response rating, Crabgrass, Large ([10]; 62 g ai/ha): 10; Foxtail, Giant plant response rating ([11]; 13 to 15 days): 35; Plant response rating (0 to 100), Foxtail, Giant [11]: 20; Plant response rating, Foxtail, Giant ([11]; 31 g ai/ha, 13 to 15 days): 15; Plant response rating, Foxtail, Giant ([11]; 62 g ai/ha): 20; Johnsongrass plant response rating ([12]; 13 to 15 days): 0; Plant response rating (0 to 100), Johnsongrass [12]: 5; Plant response rating, Johnsongrass ([12]; 31 g ai/ha, 13 to 15 days): 5; Plant response rating, Johnsongrass ([12]; 62 g ai/ha): 5; Chickweed plant response rating ([13]; 13 to 15 days): 5; Plant response rating (0 to 100), Chickweed [13]: 50; Plant response rating, Chickweed ([13]; 31 g ai/ha, 13 to 15 days): 30; Plant response rating, Chickweed ([13]; 62 g ai/ha): 15
CC(C)c1cnn(-c2c(C#N)cccc2Oc2ncc(Cl)cn2)c1 [Compound 85] | 20 | 100 | 100 | 100 | 100 | 100 | 80 | 100 | 30 | 0 | 0 | 10 | 0 | 5 | 5 | 0 | 0 | 5 | 10 | 5 | Plant response rating, Corn ([9]; 62 g ai/ha): 10; Crabgrass, Large plant response rating ([10]; 13 to 15 days): 10; Plant response rating (0 to 100), Crabgrass, Large [10]: 10; Plant response rating, Crabgrass, Large ([10]; 31 g ai/ha, 13 to 15 days): 10; Plant response rating, Crabgrass, Large ([10]; 62 g ai/ha): 5; Foxtail, Giant plant response rating ([11]; 13 to 15 days): 5; Plant response rating (0 to 100), Foxtail, Giant [11]: 15; Plant response rating, Foxtail, Giant ([11]; 31 g ai/ha, 13 to 15 days): 10; Plant response rating, Foxtail, Giant ([11]; 62 g ai/ha): 10; Johnsongrass plant response rating ([12]; 13 to 15 days): 0; Plant response rating (0 to 100), Johnsongrass [12]: 10; Plant response rating, Johnsongrass ([12]; 31 g ai/ha, 13 to 15 days): 0; Plant response rating, Johnsongrass ([12]; 62 g ai/ha): 5; Chickweed plant response rating ([13]; 13 to 15 days): 5; Plant response rating (0 to 100), Chickweed [13]: 40; Plant response rating, Chickweed ([13]; 31 g ai/ha, 13 to 15 days): 40; Plant response rating, Chickweed ([13]; 62 g ai/ha): 50
